Key:
Test in all cases: biochemical
Conditions in all cases: read-out: % inhibition mean (Lanthascreen)
CDK13/cyclin K = CDK13/cyclin K (Homo sapiens, UniProt Q14004)
CDK2/cyclin O = CDK2/cyclin O (Homo sapiens, UniProt P24941)
CLK4 = CLK4 (Homo sapiens, UniProt Q9HAZ1)
EIF2AK2 (PKR) = EIF2AK2 (PKR) (Homo sapiens, UniProt P19525)
IRAK3 = IRAK3 (Homo sapiens, UniProt Q9Y616)
KIT Y823D = KIT Y823D (Homo sapiens, UniProt P10721, Y823D)
[1] = molecular target: MAP2K1 (MEK1) S218D S222D (Homo sapiens, UniProt Q02750, S218D/S222D)
MAP2K4 (MEK4) = MAP2K4 (MEK4) (Homo sapiens, UniProt P45985)
MAP2K6 (MKK6) = MAP2K6 (MKK6) (Homo sapiens, UniProt P52564)
MAP3K10 (MLK2) = MAP3K10 (MLK2) (Homo sapiens, UniProt Q02779)
MAP3K11 (MLK3) = MAP3K11 (MLK3) (Homo sapiens, UniProt Q16584)
Sequence of MAP3K11 (MLK3) (Q16584 whole entry): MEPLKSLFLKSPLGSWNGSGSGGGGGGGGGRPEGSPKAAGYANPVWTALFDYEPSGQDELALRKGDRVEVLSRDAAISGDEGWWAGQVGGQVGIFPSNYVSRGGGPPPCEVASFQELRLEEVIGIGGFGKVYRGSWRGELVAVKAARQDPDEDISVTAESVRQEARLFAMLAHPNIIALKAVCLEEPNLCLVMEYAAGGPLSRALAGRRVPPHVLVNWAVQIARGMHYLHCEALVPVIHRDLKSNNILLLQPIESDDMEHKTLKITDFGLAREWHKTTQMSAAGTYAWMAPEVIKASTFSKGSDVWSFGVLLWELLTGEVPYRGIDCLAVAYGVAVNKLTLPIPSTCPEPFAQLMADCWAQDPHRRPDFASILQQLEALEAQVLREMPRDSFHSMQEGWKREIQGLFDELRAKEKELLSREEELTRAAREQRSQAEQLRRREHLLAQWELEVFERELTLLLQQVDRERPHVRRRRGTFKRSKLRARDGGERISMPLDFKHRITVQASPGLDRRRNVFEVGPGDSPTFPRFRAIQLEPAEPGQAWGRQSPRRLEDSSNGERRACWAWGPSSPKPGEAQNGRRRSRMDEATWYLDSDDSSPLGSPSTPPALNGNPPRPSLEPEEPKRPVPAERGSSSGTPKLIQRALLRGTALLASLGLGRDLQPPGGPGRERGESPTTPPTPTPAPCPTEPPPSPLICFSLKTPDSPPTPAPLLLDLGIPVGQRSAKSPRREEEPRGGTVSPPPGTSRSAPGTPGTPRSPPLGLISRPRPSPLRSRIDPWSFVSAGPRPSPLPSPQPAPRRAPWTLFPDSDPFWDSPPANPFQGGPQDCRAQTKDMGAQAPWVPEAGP

MAP3K14 (NIK) = MAP3K14 (NIK) (Homo sapiens, UniProt Q99558)
[2] = molecular target: MAP3K7/MAP3K7IP1 (TAK1-TAB1) (Homo sapiens, UniProt O43318)
MAP4K1 (HPK1) = MAP4K1 (HPK1) (Homo sapiens, UniProt Q92918)
MAPK15 (ERK7) = MAPK15 (ERK7) (Homo sapiens, UniProt Q8TD08)
Sequence of MAPK15 (ERK7) (Q8TD08 whole entry): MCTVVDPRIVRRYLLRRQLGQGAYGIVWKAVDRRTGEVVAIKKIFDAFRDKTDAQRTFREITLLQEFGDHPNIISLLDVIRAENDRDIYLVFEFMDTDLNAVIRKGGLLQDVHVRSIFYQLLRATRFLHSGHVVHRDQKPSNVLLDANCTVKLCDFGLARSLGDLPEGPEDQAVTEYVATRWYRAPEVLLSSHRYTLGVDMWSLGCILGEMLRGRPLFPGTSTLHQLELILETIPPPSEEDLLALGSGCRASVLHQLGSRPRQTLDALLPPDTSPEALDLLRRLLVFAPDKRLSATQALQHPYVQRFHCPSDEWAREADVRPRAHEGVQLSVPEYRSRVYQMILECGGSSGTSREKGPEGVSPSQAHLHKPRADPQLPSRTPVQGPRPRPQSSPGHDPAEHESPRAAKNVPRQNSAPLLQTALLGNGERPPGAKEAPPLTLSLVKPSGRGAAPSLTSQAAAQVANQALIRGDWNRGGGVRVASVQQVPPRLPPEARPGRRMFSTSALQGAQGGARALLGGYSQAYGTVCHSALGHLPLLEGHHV

MLK4 = MLK4 (Homo sapiens, UniProt Q5TCX8)
MYLK (MLCK) = MYLK (MLCK) (Homo sapiens, UniProt Q15746)
MYO3B (MYO3 beta) = MYO3B (MYO3 beta) (Homo sapiens, UniProt Q8WXR4)
Sequence of MYO3B (MYO3 beta) (Q8WXR4 whole entry): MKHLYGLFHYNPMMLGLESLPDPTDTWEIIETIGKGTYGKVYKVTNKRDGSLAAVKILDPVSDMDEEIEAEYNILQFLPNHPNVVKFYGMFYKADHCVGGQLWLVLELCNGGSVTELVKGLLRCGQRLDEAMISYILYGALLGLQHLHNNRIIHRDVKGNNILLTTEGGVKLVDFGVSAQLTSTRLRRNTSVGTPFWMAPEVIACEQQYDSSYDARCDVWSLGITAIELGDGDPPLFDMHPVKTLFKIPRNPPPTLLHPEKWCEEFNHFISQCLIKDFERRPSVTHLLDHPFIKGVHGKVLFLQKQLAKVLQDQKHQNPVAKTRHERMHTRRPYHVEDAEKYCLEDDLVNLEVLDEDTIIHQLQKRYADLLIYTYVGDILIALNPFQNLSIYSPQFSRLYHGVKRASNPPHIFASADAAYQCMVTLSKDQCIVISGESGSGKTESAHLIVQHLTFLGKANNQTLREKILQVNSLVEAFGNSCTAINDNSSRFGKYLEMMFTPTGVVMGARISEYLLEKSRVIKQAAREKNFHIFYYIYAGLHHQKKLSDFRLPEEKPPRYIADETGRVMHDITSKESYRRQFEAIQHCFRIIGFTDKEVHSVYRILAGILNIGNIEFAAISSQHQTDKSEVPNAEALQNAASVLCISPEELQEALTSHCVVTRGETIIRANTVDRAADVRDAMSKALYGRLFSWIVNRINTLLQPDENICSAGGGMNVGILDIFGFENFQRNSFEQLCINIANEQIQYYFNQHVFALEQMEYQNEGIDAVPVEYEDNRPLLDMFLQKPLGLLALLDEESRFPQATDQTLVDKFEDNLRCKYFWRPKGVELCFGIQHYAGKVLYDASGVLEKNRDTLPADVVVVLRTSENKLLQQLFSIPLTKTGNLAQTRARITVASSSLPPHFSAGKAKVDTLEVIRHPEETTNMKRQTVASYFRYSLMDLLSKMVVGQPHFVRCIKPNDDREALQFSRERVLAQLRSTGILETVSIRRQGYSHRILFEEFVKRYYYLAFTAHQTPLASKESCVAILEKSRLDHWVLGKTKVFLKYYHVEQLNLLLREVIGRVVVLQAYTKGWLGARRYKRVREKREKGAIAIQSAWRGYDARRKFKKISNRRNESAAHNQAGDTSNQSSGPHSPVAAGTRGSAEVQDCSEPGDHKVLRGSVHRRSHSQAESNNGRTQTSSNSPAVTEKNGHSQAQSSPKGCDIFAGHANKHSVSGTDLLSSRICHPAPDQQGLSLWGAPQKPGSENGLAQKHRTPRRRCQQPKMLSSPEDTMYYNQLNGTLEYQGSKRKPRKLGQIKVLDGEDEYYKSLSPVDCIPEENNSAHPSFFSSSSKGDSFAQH

PKN2 (PRK2) = PKN2 (PRK2) (Homo sapiens, UniProt Q16513)
RIPK3 = RIPK3 (Homo sapiens, UniProt Q9Y572)
Sequence of RIPK3 (Q9Y572 whole entry): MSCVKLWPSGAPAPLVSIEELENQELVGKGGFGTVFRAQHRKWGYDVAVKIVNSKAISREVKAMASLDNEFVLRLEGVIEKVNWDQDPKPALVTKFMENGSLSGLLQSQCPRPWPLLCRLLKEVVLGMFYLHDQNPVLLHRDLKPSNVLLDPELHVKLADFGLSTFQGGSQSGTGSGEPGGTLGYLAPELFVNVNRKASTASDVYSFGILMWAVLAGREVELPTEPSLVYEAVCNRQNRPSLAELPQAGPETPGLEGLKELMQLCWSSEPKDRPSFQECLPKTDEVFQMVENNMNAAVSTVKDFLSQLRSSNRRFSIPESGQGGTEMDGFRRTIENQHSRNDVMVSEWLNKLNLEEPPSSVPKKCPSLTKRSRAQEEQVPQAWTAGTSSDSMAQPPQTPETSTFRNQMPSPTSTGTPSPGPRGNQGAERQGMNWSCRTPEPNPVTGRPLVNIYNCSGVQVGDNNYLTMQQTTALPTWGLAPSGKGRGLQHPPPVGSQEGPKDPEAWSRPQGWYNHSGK

SIK1 = SIK1 (Homo sapiens, UniProt P57059)
SIK3 = SIK3 (Homo sapiens, UniProt Q9Y2K2)
STK17A (DRAK1) = STK17A (DRAK1) (Homo sapiens, UniProt Q9UEE5)
TEK (TIE2) Y1108F = TEK (TIE2) Y1108F (Homo sapiens, UniProt Q02763, Y1108F)
TGFBR2 = TGFBR2 (Homo sapiens, UniProt P37173)
Sequence of TGFBR2 (P37173 whole entry): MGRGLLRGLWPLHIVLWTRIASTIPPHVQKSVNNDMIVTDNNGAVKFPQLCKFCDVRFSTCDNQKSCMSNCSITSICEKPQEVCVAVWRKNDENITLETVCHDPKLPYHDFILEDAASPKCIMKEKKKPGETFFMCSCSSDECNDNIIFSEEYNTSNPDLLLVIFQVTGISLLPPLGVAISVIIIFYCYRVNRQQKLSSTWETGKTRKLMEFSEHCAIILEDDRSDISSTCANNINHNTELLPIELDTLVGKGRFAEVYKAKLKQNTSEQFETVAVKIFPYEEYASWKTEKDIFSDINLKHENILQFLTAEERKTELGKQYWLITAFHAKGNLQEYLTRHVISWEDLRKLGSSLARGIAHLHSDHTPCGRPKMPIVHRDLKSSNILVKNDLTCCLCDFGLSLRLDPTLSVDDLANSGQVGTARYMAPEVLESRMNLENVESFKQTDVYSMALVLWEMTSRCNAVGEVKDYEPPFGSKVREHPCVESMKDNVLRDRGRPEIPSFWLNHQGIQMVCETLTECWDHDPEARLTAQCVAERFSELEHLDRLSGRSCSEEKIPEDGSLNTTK

TNK2 (ACK) = TNK2 (ACK) (Homo sapiens, UniProt Q07912)
WEE1 = WEE1 (Homo sapiens, UniProt P30291)
Sequence of WEE1 (P30291 whole entry): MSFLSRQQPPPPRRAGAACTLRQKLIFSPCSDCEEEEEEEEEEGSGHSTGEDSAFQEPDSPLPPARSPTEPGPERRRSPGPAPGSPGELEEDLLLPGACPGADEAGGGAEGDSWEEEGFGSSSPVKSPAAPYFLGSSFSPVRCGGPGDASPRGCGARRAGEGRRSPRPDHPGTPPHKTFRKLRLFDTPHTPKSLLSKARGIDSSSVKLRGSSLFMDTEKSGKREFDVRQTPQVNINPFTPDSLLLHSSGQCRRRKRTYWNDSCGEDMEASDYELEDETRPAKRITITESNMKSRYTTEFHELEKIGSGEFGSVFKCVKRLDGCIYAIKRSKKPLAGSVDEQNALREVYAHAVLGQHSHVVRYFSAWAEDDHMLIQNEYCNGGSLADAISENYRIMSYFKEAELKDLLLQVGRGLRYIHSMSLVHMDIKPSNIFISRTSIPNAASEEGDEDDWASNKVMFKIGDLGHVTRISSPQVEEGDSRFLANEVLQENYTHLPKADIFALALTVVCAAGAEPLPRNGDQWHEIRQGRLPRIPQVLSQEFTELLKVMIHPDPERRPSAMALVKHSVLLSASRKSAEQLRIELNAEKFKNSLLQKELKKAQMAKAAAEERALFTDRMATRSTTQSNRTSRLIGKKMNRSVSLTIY

WNK2 = WNK2 (Homo sapiens, UniProt Q9Y3S1)

Sequence of IRAK3 (Q9Y616 whole entry): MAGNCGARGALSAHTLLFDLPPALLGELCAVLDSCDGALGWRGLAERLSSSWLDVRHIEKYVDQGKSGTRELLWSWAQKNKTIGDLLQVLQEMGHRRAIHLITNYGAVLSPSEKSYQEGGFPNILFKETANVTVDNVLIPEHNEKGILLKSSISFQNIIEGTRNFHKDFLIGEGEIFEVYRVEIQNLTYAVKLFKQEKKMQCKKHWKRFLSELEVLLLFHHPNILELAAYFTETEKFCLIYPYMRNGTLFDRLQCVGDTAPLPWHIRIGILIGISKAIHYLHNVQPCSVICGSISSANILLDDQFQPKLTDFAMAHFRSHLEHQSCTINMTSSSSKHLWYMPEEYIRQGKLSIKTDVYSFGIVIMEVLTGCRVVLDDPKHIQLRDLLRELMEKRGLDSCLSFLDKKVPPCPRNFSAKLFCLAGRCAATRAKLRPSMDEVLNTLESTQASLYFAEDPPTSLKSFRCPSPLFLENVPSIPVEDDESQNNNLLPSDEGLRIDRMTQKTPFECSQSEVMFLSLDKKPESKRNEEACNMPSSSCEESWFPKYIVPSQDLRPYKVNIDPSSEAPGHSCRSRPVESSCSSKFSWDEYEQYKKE

`COc1ccc2nc3cc(Cl)ccc3c(Nc3cc(CN4CCCC4)c(O)c(CN4CCCC4)c3)c2n1` [Pyronaridine, 4-[(7-Chloro-2-methoxybenzo[b][1,5]naphthyridin-10-yl)amino]-2,6-bis(1-pyrrolidinylmethyl)phenol phosphate (1:4)] was tested, and the inhibition at 1 µM (CDK13/cyclin K) was -13%, the inhibition at 1 µM (CDK2/cyclin O) was 2% and the inhibition at 1 µM (CLK4) was 6%. The inhibition at 1 µM (EIF2AK2 (PKR)) was 4%, the inhibition at 1 µM (IRAK3) was -5% and the inhibition at 1 µM (KIT Y823D) was -4%. It also gave an inhibition at 1 µM [1] of 3%, an inhibition at 1 µM (MAP2K4 (MEK4)) of 1% and an inhibition at 1 µM (MAP2K6 (MKK6)) of 9%. The inhibition at 1 µM (MAP3K10 (MLK2)) was 0%, the inhibition at 1 µM (MAP3K11 (MLK3)) was 2% and the inhibition at 1 µM (MAP3K14 (NIK)) was 2%. It also gave an inhibition at 1 µM [2] of 1%, an inhibition at 1 µM (MAP4K1 (HPK1)) of 1% and an inhibition at 1 µM (MAPK15 (ERK7)) of -11%. It also gave an inhibition at 1 µM (MLK4) of 8%, an inhibition at 1 µM (MYLK (MLCK)) of 4% and an inhibition at 1 µM (MYO3B (MYO3 beta)) of 5%. It also gave an inhibition at 1 µM (PKN2 (PRK2)) of 6%, an inhibition at 1 µM (RIPK3) of -7% and an inhibition at 1 µM (SIK1) of 2%. The inhibition at 1 µM (SIK3) was -2%, the inhibition at 1 µM (STK17A (DRAK1)) was 1% and the inhibition at 1 µM (TEK (TIE2) Y1108F) was -2%. It also gave an inhibition at 1 µM (TGFBR2) of -4%, an inhibition at 1 µM (TNK2 (ACK)) of 1% and an inhibition at 1 µM (WEE1) of 10%. The inhibition at 1 µM (WNK2) was 4%.
